{"source": "paper PMC7392643", "about": "“Antibiotic fidaxomicin is an RdRp inhibitor as a potential new therapeutic agent against Zika virus” (BMC Medicine, 2020)", "key": {"[1]": {"tested_on": "suppression of IFN signaling induced by ZIKV NS5", "assay": "pISRE-Luc luciferase reporter assay in 293T cells", "assay_type": "cell-based, human", "conditions": "RIG-I(N) driven, 30 h treatment", "procedure": "293T cells were cultured in 24-well plates (~ 1 × 10^5 cells per well) and co-transfected with pISRE-Luc (100 ng) and the plasmid coding for RIG-I (100 ng) together with the ZIKV NS5 plasmid at indicated concentrations. Control pcDNA3.1 vector was added to ensure that the same total amount of DNA was used for each transfection. To normalize for transfection efficiency, 5 ng of the constitutive Renilla luciferase reporter pRL-TK (Promega, San Luis Obispo, CA, USA) was added to each transfection. Six hours after transfection, cells were treated by fidaxomicin at indicated concentration for 30 h, followed by analysis of cell lysates for luciferase activity using the Dual-Luciferase Reporter Assay System Kit (Promega) according to the manufacturer’s protocol."}, "ZIKV NS5 polymerase": {"biological_target": "T1, ZIKV NS5 polymerase (Zika virus, UniProt A0A024B7W1)", "T1 construct": "NS5 (amino acids 1 to 903); His tag (8x histidine) (N); made in house; host or cells: Escherichia coli (Rosetta)", "T1 sequence (A0A024B7W1 2521-3423)": "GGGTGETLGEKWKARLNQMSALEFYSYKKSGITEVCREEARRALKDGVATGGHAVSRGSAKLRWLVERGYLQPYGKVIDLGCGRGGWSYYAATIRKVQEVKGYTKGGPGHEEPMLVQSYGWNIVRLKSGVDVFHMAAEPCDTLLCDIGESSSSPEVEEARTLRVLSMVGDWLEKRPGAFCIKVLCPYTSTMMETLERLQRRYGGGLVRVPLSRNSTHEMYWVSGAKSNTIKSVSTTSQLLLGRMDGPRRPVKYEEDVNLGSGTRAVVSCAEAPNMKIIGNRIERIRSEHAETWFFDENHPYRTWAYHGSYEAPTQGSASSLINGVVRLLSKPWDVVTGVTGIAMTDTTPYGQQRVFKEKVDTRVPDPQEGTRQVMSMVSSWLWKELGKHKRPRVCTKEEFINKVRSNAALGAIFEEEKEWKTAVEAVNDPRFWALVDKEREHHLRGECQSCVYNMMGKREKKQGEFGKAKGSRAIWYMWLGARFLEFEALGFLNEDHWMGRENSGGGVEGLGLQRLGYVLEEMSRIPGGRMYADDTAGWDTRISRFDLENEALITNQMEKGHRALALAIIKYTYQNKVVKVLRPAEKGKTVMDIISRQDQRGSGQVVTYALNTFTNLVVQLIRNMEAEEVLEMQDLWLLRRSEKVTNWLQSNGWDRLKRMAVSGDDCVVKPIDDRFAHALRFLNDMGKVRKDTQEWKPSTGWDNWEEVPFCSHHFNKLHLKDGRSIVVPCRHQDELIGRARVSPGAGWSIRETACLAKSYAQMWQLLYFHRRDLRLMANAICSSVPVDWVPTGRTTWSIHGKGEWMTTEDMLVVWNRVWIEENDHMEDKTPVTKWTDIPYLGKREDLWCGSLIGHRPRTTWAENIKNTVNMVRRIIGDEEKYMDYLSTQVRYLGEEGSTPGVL", "assay": "Polymerase activity assay (non-radioactive primer extension)", "assay_type": "biochemical", "conditions": "NS5 20 nM, Primer/Template 10 nM, 2 h at 37 °C, quantified by amount of RNA products; read-out: IC50 of RdRp-catalyzed RNA synthesis", "procedure": "ZIKV NS5 polymerase activity was determined using a primer extension reaction with a fluorescently labeled RNA primer/RNA template complex (P/T) as described by Lu et al.. Briefly, fluorescently labeled oligonucleotide primer (Cy5-RNA) and unlabeled RNA template were mixed and then slowly cooled down for annealing. A typical primer extension reaction was performed by ZIKV NS5 polymerase at various concentrations, followed by incubation for 2 h at 37 °C. To determine the inhibitory activity of fidaxomicin, the polymerase reactions were initiated by addition of fidaxomicin at gradient concentrations ranging between 0 and 200 μM. The products were detected by denaturing polyacrylamide gel electrophoresis (Urea PAGE), and the results were scanned using an Odyssey infrared imaging system (LI-COR Biosciences, Lincoln, NE). The images were analyzed, and proper RNA bands were quantified using Image J software version 1.52a (NIH, Bethesda, MD, USA)."}, "ZIKV ZG-01 strain": {"tested_on": "ZIKV ZG-01 strain", "assay": "In vitro antiviral assay, plaque assay, ZIKV ZG-01", "procedure": "The anti-ZIKV activity of fidaxomicin and ribavirin was evaluated in vitro by plaque assay. Various cell lines, including SNB19 (6 × 10^4/well, 10% FBS DMEM), A172 (7 × 10^4/well, 10% FBS DMEM), Vero (6 × 10^4/well 10% FBS DMEM), Huh7 (7 × 10^4/well, 10% FBS DMEM), HUVECs (7 × 10^4/well, 15% FBS M199 medium supplemented with 2 mM L-glutamine, 0.02 mg/mL endothelial cell growth supplement, and 0.05 mg/mL heparin), and A549 (6 × 10^4/well, 5% FBS DMEM), were plated in 12-well plates and allowed to attach overnight, followed by infection with ZIKV (ZG-01 strain or MR766 strain, respectively, at indicated MOI) in the presence of different concentrations of fidaxomicin, ribavirin, or vehicle control for 1 h, followed by two washes with 1 × PBS and incubated with fresh medium (without virus) consisting of corresponding concentrations of the compounds for further 48 h. The cell supernatants were collected to quantify ZIKV infection by plaque assay as previously described or by RT-qPCR. […] The anti-DENV activity of fidaxomicin was evaluated in vitro by RT-qPCR."}, "DENV2 NS5 protein": {"biological_target": "T2, DENV2 NS5 protein (Dengue virus type 2, UniProt P14340)", "T2 construct": "DENV2 NS5 (amino acids 1 to 900); His tag (N); made in house", "assay": "SPR (BIAcore) binding to DENV2 NS5 protein", "conditions": "qualitative", "procedure": "The cDNA fragment of ZIKV (ZG-01 strain) NS5 (amino acids 1 to 903), RdRp (amino acids 272 to 903), or DENV2 NS5 (amino acids 1 to 900) containing an N-terminal His tag sequence was cloned into a pET-30a-mutant vector. For protein expression, the plasmids were transformed into Rosetta™ competent cells (TIANGEN BIOTECH Co., Ltd., Beijing, China), respectively. […] Mass spectrometry was performed by Shanghai Applied Protein Technology Co. Ltd. (Shanghai, China). The concentration of a targeted protein was measured by SDS-PAGE using BSA (Sigma, St. Louis, MO) as a standard.\nSurface plasmon resonance (SPR) experiments were performed in a BIAcore T100 device (BIAcore Inc., Uppsala, Sweden) using CM5 sensor chips (General Electric Company, GE) according to the protocol provided by the manufacturer. Briefly, recombinant ZIKV NS5 protein, RdRp protein, or DENV2 NS5 protein was immobilized on a CM5 chip, respectively. Different concentrations of fidaxomicin or ribavirin were injected at a flow rate of 30 μL/min for 3 min. Subsequently, data were collected for a 3-min association followed by a 20-min dissociation. The chip was regenerated by injecting 10 μL of 15 mM NaOH for 20 s. […] The binding kinetics was analyzed with the software BIAevaluation version 3.1 using a 1:1 Langmuir binding model. The Kd was calculated as previously described."}}}
{"smiles": "CCc1c(Cl)c(O)c(Cl)c(O)c1C(=O)O[C@H]1[C@H](O)[C@H](OC)[C@H](OC/C2=C\\C=C\\C[C@H](O)/C(C)=C/[C@H](CC)[C@@H](O[C@@H]3OC(C)(C)[C@@H](OC(=O)C(C)C)[C@H](O)[C@@H]3O)/C(C)=C/C(C)=C/C[C@@H]([C@@H](C)O)OC2=O)O[C@@H]1C", "note": "[Fidaxomicin]", "values": [{"measurement": "effect on NS5 suppression of ISRE reporter luciferase activity", "setting": "[1]", "result": "did not liberate the suppression of IFN signaling"}, {"measurement": "IC50", "setting": "ZIKV NS5 polymerase", "result": 10.9, "unit": "µM"}, {"measurement": "EC50 lower than that of ribavirin", "setting": "ZIKV ZG-01 strain; SNB19 cells", "result": 10, "unit": "fold"}, {"measurement": "concentration above which ZIKV infection was completely undetectable", "setting": "ZIKV ZG-01 strain; SNB19 cells, plaque assay", "result": "exceeded 18 μM"}, {"measurement": "EC90", "setting": "ZIKV ZG-01 strain; SNB19 cells, plaque assay, 48 h", "result": "8.9 ± 0.6", "unit": "µM"}, {"measurement": "EC50", "setting": "ZIKV ZG-01 strain; Zika virus, A549, 48 h", "result": "12.2 ± 3.6", "unit": "µM"}, {"measurement": "EC90", "setting": "ZIKV ZG-01 strain; Zika virus, A549, 48 h, A549 cells, plaque assay, 48 h", "result": "39.5 ± 4.8", "unit": "µM"}, {"measurement": "EC50", "setting": "ZIKV ZG-01 strain; Zika virus, Huh-7, 48 h", "result": "7.7 ± 1.7", "unit": "µM"}, {"measurement": "EC90", "setting": "ZIKV ZG-01 strain; Zika virus, Huh-7, 48 h, Huh7 cells, plaque assay, 48 h", "result": "17.8 ± 3.5", "unit": "µM"}, {"measurement": "EC50", "setting": "ZIKV ZG-01 strain; Zika virus, SNB-19, 48 h", "result": "6 ± 1", "unit": "µM"}, {"measurement": "EC90", "setting": "ZIKV ZG-01 strain; Zika virus, SNB-19, 48 h, SNB19 cells, plaque assay, 48 h", "result": "~9", "unit": "µM"}, {"measurement": "EC50", "setting": "ZIKV ZG-01 strain; Zika virus, Vero, 48 h", "result": "11.7 ± 2.1", "unit": "µM"}, {"measurement": "EC90", "setting": "ZIKV ZG-01 strain; Zika virus, Vero, 48 h, Vero cells, plaque assay", "result": "48.2 ± 5.3", "unit": "µM"}, {"measurement": "binding to DENV2 NS5 protein (SPR)", "setting": "DENV2 NS5 protein", "result": "affinity"}]}
